pIC50: −log10 of the molar value.
Each compound was assayed on HIV in the HTLV-1 transformed cell line MT-4 (assay: organism not typed). Conditions: MT4, 96 h, MT-4 cells; luciferase/cell titer glo readout after 96 hours; 10 point dose response.
Format: cell-based
Compound `COc1cc(C(=O)N2Cc3c(C)c(-c4ccc(C)cc4)c([C@H](OC(C)(C)C)C(=O)O)c(C)c3C2)ccc1C` [Example 222, (S)-2-(tert-butoxy)-2-(2-(3-methoxy-4-methylbenzoyl)-4,7-dimethyl-6-(p-tolyl)isoindolin-5-yl)acetic acid] has a pIC50 of 8.40.
Compound `Cc1ccc(-c2c(C)c3c(c(C)c2[C@H](OC(C)(C)C)C(=O)O)CN(C(=O)c2ccnn2C)C3)cc1` [Example 223, (S)-2-(tert-butoxy)-2-(4,7-dimethyl-2-(1-methyl-1H-pyrazole-5-carbonyl)-6-(p-tolyl)isoindolin-5-yl)acetic acid] has a pIC50 of 7.89.
Compound `Cc1ccc(-c2c(C)c3c(c(C)c2[C@H](OC(C)(C)C)C(=O)O)CN(C(=O)c2ccc(C(C)(C)C)cc2)C3)cc1` [Example 224, (S)-2-(tert-butoxy)-2-(2-(4-(tert-butyl)benzoyl)-4,7-dimethyl-6-(p-tolyl)isoindolin-5-yl)acetic acid] has a pIC50 of 7.36.
`Cc1ccc(-c2c(C)c3c(c(C)c2[C@H](OC(C)(C)C)C(=O)O)CN(C(=O)c2cccc(C)c2)C3)cc1` [Example 225, (S)-2-(tert-butoxy)-2-(4,7-dimethyl-2-(3-methylbenzoyl)-6-(p-tolyl)isoindolin-5-yl)acetic acid] showed a pIC50 of 8.30.
`Cc1ccc(-c2c(C)c3c(c(C)c2[C@H](OC(C)(C)C)C(=O)O)CN(C(=O)c2cc(F)cc(Cl)c2)C3)cc1` [Example 226, (S)-2-(tert-butoxy)-2-(2-(3-chloro-5-fluorobenzoyl)-4,7-dimethyl-6-(p-tolyl)isoindolin-5-yl)acetic acid] was tested, and the pIC50 was 8.30.
Work on `Cc1ccc(-c2c(C)c3c(c(C)c2[C@H](OC(C)(C)C)C(=O)O)CN(C(=O)c2ccc(C(F)(F)F)cc2)C3)cc1` [Example 227, (S)-2-(tert-butoxy)-2-(4,7-dimethyl-6-(p-tolyl)-2-(4-(trifluoromethyl)benzoyl)isoindolin-5-yl)acetic acid] yielded a pIC50 of 7.85.
Work on `Cc1ccc(-c2c(C)c3c(c(C)c2[C@H](OC(C)(C)C)C(=O)O)CN(C(=O)C2CCC2)C3)cc1` [Example 228, (S)-2-(tert-butoxy)-2-(2-(cyclobutanecarbonyl)-4,7-dimethyl-6-(p-tolyl)isoindolin-5-yl)acetic acid] yielded a pIC50 of 7.89.
`Cc1ccc(-c2c(C)c3c(c(C)c2[C@H](OC(C)(C)C)C(=O)O)CN(C(=O)c2ccccc2)C3)cc1` [Example 229, (S)-2-(2-benzoyl-4,7-dimethyl-6-(p-tolyl)isoindolin-5-yl)-2-(tert-butoxy)acetic acid] gave a pIC50 of 8.30.
`Cc1ccc(-c2c(C)c3c(c(C)c2[C@H](OC(C)(C)C)C(=O)O)CN(C(=O)c2cccc(C(C)(C)C)c2)C3)cc1` [Example 230, (S)-2-(tert-butoxy)-2-(2-(3-(tert-butyl)benzoyl)-4,7-dimethyl-6-(p-tolyl)isoindolin-5-yl)acetic acid] was tested, and the pIC50 was 6.95.
`Cc1ccc(-c2c(C)c3c(c(C)c2[C@H](OC(C)(C)C)C(=O)O)CN(C(=O)[C@H]2CCOC2)C3)cc1` [Example 231, (S)-2-(tert-butoxy)-2-(4,7-dimethyl-2-((S)-tetrahydrofuran-3-carbonyl)-6-(p-tolyl)isoindolin-5-yl)acetic acid] showed a pIC50 of 7.43.
`CCOCCC(=O)N1Cc2c(C)c(-c3ccc(C)cc3)c([C@H](OC(C)(C)C)C(=O)O)c(C)c2C1` [Example 232, (S)-2-(tert-butoxy)-2-(2-(3-ethoxypropanoyl)-4,7-dimethyl-6-(p-tolyl)isoindolin-5-yl)acetic acid] showed a pIC50 of 6.83.
Work on `Cc1ccc(-c2c(C)c3c(c(C)c2[C@H](OC(C)(C)C)C(=O)O)CN(C(=O)Cc2cccc(F)c2)C3)cc1` [Example 233, (S)-2-(tert-butoxy)-2-(2-(2-(3-fluorophenyl)acetyl)-4,7-dimethyl-6-(p-tolyl)isoindolin-5-yl)acetic acid] yielded a pIC50 of 7.92.
`Cc1ccc(-c2c(C)c3c(c(C)c2[C@H](OC(C)(C)C)C(=O)O)CN(C(=O)c2cccc(OC(C)C)c2)C3)cc1` [Example 234, (S)-2-(tert-butoxy)-2-(2-(3-isopropoxybenzoyl)-4,7-dimethyl-6-(p-tolyl)isoindolin-5-yl)acetic acid] showed a pIC50 of 7.59.
Compound `COc1cncc(C(=O)N2Cc3c(C)c(-c4ccc(C)cc4)c([C@H](OC(C)(C)C)C(=O)O)c(C)c3C2)c1` [Example 235, (S)-2-(tert-butoxy)-2-(2-(5-methoxynicotinoyl)-4,7-dimethyl-6-(p-tolyl)isoindolin-5-yl)acetic acid] has a pIC50 of 8.30.
`Cc1ccc(-c2c(C)c3c(c(C)c2[C@H](OC(C)(C)C)C(=O)O)CN(C(=O)c2cncc(C)c2)C3)cc1` [Example 236, (S)-2-(tert-butoxy)-2-(4,7-dimethyl-2-(5-methylnicotinoyl)-6-(p-tolyl)isoindolin-5-yl)acetic acid] gave a pIC50 of 8.30.
`Cc1ccc(-c2c(C)c3c(c(C)c2[C@H](OC(C)(C)C)C(=O)O)CN(C(=O)c2cn(C)cn2)C3)cc1` [Example 237, (S)-2-(tert-butoxy)-2-(4,7-dimethyl-2-(1-methyl-1H-imidazole-4-carbonyl)-6-(p-tolyl)isoindolin-5-yl)acetic acid] showed a pIC50 of 7.17.
`Cc1ccc(-c2c(C)c3c(c(C)c2[C@H](OC(C)(C)C)C(=O)O)CN(C(=O)c2ccn(C)n2)C3)cc1` [Example 240, (S)-2-(tert-butoxy)-2-(4,7-dimethyl-2-(1-methyl-1H-pyrazole-3-carbonyl)-6-(p-tolyl)isoindolin-5-yl)acetic acid] showed a pIC50 of 6.92.
For `Cc1ccc(-c2c(C)c3c(c(C)c2[C@H](OC(C)(C)C)C(=O)O)CN(C(=O)C(C)(C)C(F)(F)F)C3)cc1` [Example 241, (S)-2-(tert-butoxy)-2-(4,7-dimethyl-6-(p-tolyl)-2-(3,3,3-trifluoro-2,2-dimethylpropanoyl)isoindolin-5-yl)acetic acid], the pIC50 was 7.60.
In the case of `Cc1ccc(-c2c(C)c3c(c(C)c2[C@H](OC(C)(C)C)C(=O)O)CN(C(=O)c2ccccc2C(C)(C)C)C3)cc1` [Example 242, (S)-2-(tert-butoxy)-2-(2-(2-(tert-butyl)benzoyl)-4,7-dimethyl-6-(p-tolyl)isoindolin-5-yl)acetic acid], the pIC50 was 7.89.
With `Cc1ccc(-c2c(C)c3c(c(C)c2[C@H](OC(C)(C)C)C(=O)O)CN(C(=O)C2(C)CCCCC2)C3)cc1` [Example 243, (S)-2-(tert-butoxy)-2-(4,7-dimethyl-2-(1-methylcyclohexanecarbonyl)-6-(p-tolyl)isoindolin-5-yl)acetic acid] the pIC50 was 7.74.
`COC1CCCC(C(=O)N2Cc3c(C)c(-c4ccc(C)cc4)c([C@H](OC(C)(C)C)C(=O)O)c(C)c3C2)C1` (stereo partly drawn) [Example 244, (2S)-2-(tert-butoxy)-2-(2-(3-methoxycyclohexanecarbonyl)-4,7-dimethyl-6-(p-tolyl)isoindolin-5-yl)acetic acid] showed a pIC50 of 7.85.

Same assay, conditions: MT-4 cells; luciferase/cell titer glo readout after 96 hours; 10 point dose response
Compound `Cc1ccc(-c2c(C)c3c(c(C)c2[C@H](OC(C)(C)C)C(=O)O)CN(C(=O)c2nccn2C)C3)cc1` [Example 238, (S)-2-(tert-butoxy)-2-(4,7-dimethyl-2-(1-methyl-1H-imidazole-2-carbonyl)-6-(p-tolyl)isoindolin-5-yl)acetic acid] has a pIC50 of 6.03.
`Cc1ccc(-c2c(C)c3c(c(C)c2[C@H](OC(C)(C)C)C(=O)O)CN(C(=O)c2nccn2C)C3)cc1` [Example 239, (S)-2-(tert-butoxy)-2-(4,7-dimethyl-2-(1-methyl-1H-imidazole-2-carbonyl)-6-(p-tolyl)isoindolin-5-yl)acetic acid] showed a pIC50 of 7.80.
